Test results from patent US6579967B1, “Receptor-selective somatostatin analogs” (The Salk Institute for Biological Studies, priority 1999, dated 2003).

Molecular target: T1, human SSTR3 (Homo sapiens, UniProt P32745)
T1 construct: expressed in transfected cells; host or cells: CHO-K1 cells and CCL39 cells
Experiment: Displacement of 125I-[Leu8,D-Trp22,Tyr25]-somatostatin-28 from cloned SSTR3 (receptor autoradiography on membrane pellets)
Type: binding
Details: qualitative statement
Experimental: Generally, recombinant cells expressing the receptor are washed and homogenized to prepare a crude protein homogenate in a suitable buffer, as known in the art. In a typical assay, an amount of protein from the cell homogenate is placed into a small volume of an appropriate assay buffer at an appropriate pH. Candidate substances, such as potential SRIF agonists and antagonists, are added to the admixture in convenient concentrations, and the interaction between the candidate substance and the receptor polypeptide is monitored.
Receptor binding assays are performed on cloned SRIF receptors as generally set forth in Raynor et al. supra. Using such assays, one can generate KD values which are indicative of the concentration of a ligand necessary to occupy one-half (50%) of the binding sites on a selected amount of a receptor or the like, or alternatively, competitive assays can generate IC50 values which are indicative of the concentration of a competitive ligand necessary to displace a saturation concentration of a target ligand being measured from 50% of binding sites. The peptide des-AA^1,2,4,5,12,13-[D-Agl^8(Me,2-naphthoyl)]SRIF inhibits the binding to SSTR3 of an iodinated SRIF-28 ligand that has strong affinity for all five receptors.
In vitro Bioassay: The various somatostatin analogs are tested in vitro for their ability to bind to isolated cloned receptors expressed on CHO-K1 cells and CCL39 cells. CHO-K1 cells are grown in Ham's F-12 medium, and CCL39 cells are grown in Dulbecco's modified Eagle's medium/Ham's F-12(1:1) mix, supplemented with 10% fetal bovine serum, 100 U/ml penicillin and 100 μg/ml streptomycin, in humidified air containing 5% CO2 at 37° C.
Cells are washed twice with and scraped into ice-cold 0.05 M Tris-HCl (pH 7.4), collected by centrifugation, and homogenized using a rotor/stator slash system in the same buffer. After centrifugation at 120 g for 5 min. at 4° C., the supernatant is collected and centrifuged again at 48,000 g for 30 min. at 4° C. The resulting pellet is resuspended in ice-cold Tris buffer, transferred into a microfuge tube, and centrifuged at 20,000 g for 15 min. at 4° C. After withdrawal of the supernatant, the membrane pellet is stored at −80° C.
Receptor autoradiography is performed on 20 μm thick cryostat sections of the membrane pellets, mounted on microscope slides, and then stored at −20° C. For each of the tested compounds, complete displacement experiments are performed with the universal somatostatin ligand radioligand ^125I-[Leu^8,D-Trp^22,Tyr^25]-somatostatin-28 that binds with strong affinity to all five receptors. Increasing concentrations of the unlabeled peptide are used ranging from 0.1-1000 nM. Unlabeled somatostatin-28 is run in parallel using the same increasing concentrations, as a control. IC50 values are calculated after quantification of the data using a computer-assisted image processing system as known in this art.
The potencies of certain SRIF analogs to inhibit radioligand binding of ^125I-[Leu^8,D-Trp^22,[…]]SRIF-28 to the various cloned SRIF receptors are shown in the following table wherein the IC50 values are given in nanomolar concentration.

T1 sequence (P32745 whole entry): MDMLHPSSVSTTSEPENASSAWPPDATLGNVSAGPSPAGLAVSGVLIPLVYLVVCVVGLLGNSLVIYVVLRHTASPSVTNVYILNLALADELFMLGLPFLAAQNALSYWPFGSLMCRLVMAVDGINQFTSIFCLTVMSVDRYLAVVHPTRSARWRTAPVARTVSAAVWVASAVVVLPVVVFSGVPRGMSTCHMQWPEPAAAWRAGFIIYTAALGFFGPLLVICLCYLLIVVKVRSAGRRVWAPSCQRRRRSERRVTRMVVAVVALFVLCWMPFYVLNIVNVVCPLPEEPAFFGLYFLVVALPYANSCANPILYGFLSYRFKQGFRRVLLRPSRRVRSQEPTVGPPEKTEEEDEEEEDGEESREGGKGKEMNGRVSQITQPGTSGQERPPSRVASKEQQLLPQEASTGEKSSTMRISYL

| Substance | binding strength and selectivity for SSTR3, in words |
| --- | --- |
| (cyclo 3-14)Cbm-D-Cys-Phe-Tyr-D-Agl(Me,2Np)-Lys-Thr-Aph(Ac)-Cys-OH [Peptide No. 2M] | bind strongly and selectively to SSTR3 |
| (cyclo 3-14)Cbm-D-Cys-Phe-Tyr-D-Agl(Me,2Np)-Lys-Thr-Aph-Cys-OH [Peptide No. 2L] | bind strongly and selectively to SSTR3 |
| (cyclo 3-14)H-Cys-Lys-Asn-Phe-Tyr-D-Agl(Me,2Np)-Lys-Thr-Phe-Thr-Ser-Cys-OH [Peptide No. 2G] | binds selectively to SSTR3 but has fairly low affinity for all five SRIF receptors |

The remaining lines, values ahead:

| binding strength and selectivity for SSTR3, in words | Substance |
| --- | --- |
| bind selectively to human SSTR3 | (cyclo 3-14)Cbm-D-Cys-Phe-Agl(NMe,Bz)-D-2Nal-Lys-Thr-Phe-Cys-OH [Peptide No. 3C] |
| bind strongly and selectively to SSTR3 | (cyclo 3-14)Cbm-D-Cys-Phe-Tyr-D-Agl(Me,2Np)-Lys-Thr-Aph(Cbm)-Cys-OH [Peptide No. 2N] |
| bind selectively to human SSTR3 | (cyclo 3-14)H-Cys-Phe-Agl(Me,Bz)-D-1Nal-Lys-Thr-Phe-Cys-OH [Peptide No. 3B] |
| bind selectively to SSTR3 | (cyclo 3-14)H-D-Cys-Phe-Agl(NMe,Bz)-D-2Nal-Lys-Thr-Phe-Cys-OH [Peptide No. 3A] |
